Legend:
[1] = system: MES-induced seizure spread; experiment: Maximal Electroshock Seizure (MES) test, rats p.o.; assay type: in vivo, rat; details: for MES, number of animals protected / total number of animals tested: rat p.o., 30 mg/kg; for anti-seizure activity (in words): rats
Source text: (§1) The fluoro derivatives synthesized were submitted to the National Institute of Neurological Disorders and Stroke (NINDS) for evaluation in a standard panel of assays. Two convulsant tests (MES and scMET), and a toxicity screen (rotorod in mice, positional sense and gait in rats) were employed for evaluating the compounds activity as neuroprotecting agents. These testing procedures are described in detail in Molecular and Cellular Targets for Anti-epileptic Drugs, eds. G. Avanzini, G. Regesta, P. Tanganelli, M. Avoli, 1997, John Libbey & Company Ltd, pp 191-198. The felbamate derivatives were evaluated for anticonvulsant activity following intraperitoneal (i.p.) administration in mice and oral administration in rats.
(§2) The MES test is a model for generalized tonic-clonic seizures and is used to identify compounds which prevent seizure spread. The behavioral and electrographic seizures generated in this model are consistent with the human disorder. In the MES test, an electrical stimulus of 0.2 s in duration (50 mA in mice and 150 mA in rat at 60Hz) was delivered via corneal electrodes primed with an electrolyte solution containing an anesthetic agent. Mice were tested at 30 minutes and 4 hours following doses of 30, 100 and 300 mg/kg of test compound. Rats were tested at time intervals between 0.25 and 4 hours following a standard oral dose of 30 mg/kg. Abolition of the hindlimb tonic extensor component indicates the test compound's ability to inhibit MES-induced seizure spread.
(§3) For the MES and scMET tests the data is presented in the form of the number of animals protected by the administered compound / total number of animals tested. […] Qualitative data was obtained for fluoro felbamate 12 (Tables 1 and 2A), fluoro monocarbamate felbamate 13 (Tables 1 and 2B), and fluorodioxo 16 (Tables 1 and 2C) and for cyclic felbamate 21 (Tables 5 and 6B) and cyclic monocarbamate 22 (Tables 5 and 6A). More extensive quantitative data was also obtained for fluoro felbamate 12 in mice (Table 3) and rats (Table 4).

[2] = system: MES-induced seizure spread; experiment: Maximal Electroshock Seizure (MES) test, mice i.p.; assay type: in vivo; details: for MES, number of animals protected / total number of animals tested: mice i.p.
Source text: as §1
as §2, with “Mice were tested at 30 minutes and 4 hours following doses of 30, 100 and 300 mg/kg of test compound.” left out
as §3

mice = experiment: Minimal neurotoxicity (TOX), rotorod test, mice i.p.; assay type: in vivo; details: mice i.p.
Source text: as §1, with “G. Avanzini, G. Regesta, P. Tanganelli, M. Avoli, 1997, John Libbey & Company Ltd, pp 191-198.” left out, “rats. […]” for “rats.”

pentylenetetrazol = experiment: Subcutaneous Metrazol seizure test (scMET), mice i.p.; assay type: in vivo, Carworth Farms No. 1 mice; details: mice i.p.
Source text: as §1
This is a model that primarily identifies compounds that raise seizure threshold. With some minor exceptions, the pharmacological profile of the scMET seizure model is consistent with the human condition. The scMET test utilizes a dose of pentylenetetrazol (85 mg/kg in Carworth Farms No. 1 mice and 70 mg/kg in Sprague-Dawley rats) that induces clonic seizures lasting for a period of at least five seconds in 97 % (CD97) of animals tested. At the anticipated time of testing the convulsant is administered subcutaneously. The test compound is administered intraperitoneally in mice and orally in rats. Animals are observed over a 30 minute period. Absence of clonic spasms in the observed time period indicates a compound's ability to abolish the effect of pentylenetetrazol on seizure threshold.
as §3

rats = experiment: Minimal neurotoxicity (TOX), positional sense and gait and stance tests, rats p.o.; assay type: in vivo; details: rat p.o., 30 mg/kg
Source text: as §1, with “G. Avanzini, G. Regesta, P. Tanganelli, M. Avoli, 1997, John Libbey & Company Ltd, pp 191-198.” left out
Rats are examined for behavioral toxicity by the positional sense test and a gait and stance test. […] In the gait and stance test, neurotoxicity is indicated by a circular or zigzag gait, ataxia, abnormal spread of the legs, abnormal posture, tremor hyperactivity, lack of exploratory behavior, somnolence, stupor or catalepsy. […]

`O=C1NC(=O)C(F)(c2ccccc2)CO1` (stereo not shown) [fluoro dioxo, 5-Fluoro-5-phenyl-1,3-oxazinane-2,4-dione] was tested, and the “MES, number of animals protected / total number of animals tested” value ([1]; 0.25h) was 0/4, the “MES, number of animals protected / total number of animals tested” value ([1]; 0.5h) was 1/4 and the “MES, number of animals protected / total number of animals tested” value ([1]; 1.0h) was 1/4. For the same compound, the “MES, number of animals protected / total number of animals tested” value ([1]; 2.0h) was 1/4, the “MES, number of animals protected / total number of animals tested” value ([1]; 4.0h) was 2/4 and the “anti-seizure activity (in words)” value [1] was “strong anti-seizure activity”. The “anti-seizure activity (in words)” value ([2]; mice) was “inactive”, the “MES, number of animals protected / total number of animals tested” value ([2]; 30 mg/kg, 0.5h) was 0/1 and the “MES, number of animals protected / total number of animals tested” value ([2]; 30 mg/kg, 4.0h) was 0/1. The “MES, number of animals protected / total number of animals tested” value ([2]; 100 mg/kg, 0.5h) was 0/3, the “MES, number of animals protected / total number of animals tested” value ([2]; 100 mg/kg, 4.0h) was 0/3 and the “MES, number of animals protected / total number of animals tested” value ([2]; 300 mg/kg, 0.5h) was 0/1. The “MES, number of animals protected / total number of animals tested” value ([2]; 300 mg/kg, 4.0h) was 0/1, the “TOX, number of animals exhibiting toxic effects / total number of animals tested” value (mice; 30 mg/kg, 0.5h) was 0/4 and the “TOX, number of animals exhibiting toxic effects / total number of animals tested” value (mice; 30 mg/kg, 4.0h) was 0/2. The “TOX, number of animals exhibiting toxic effects / total number of animals tested” value (mice; 100 mg/kg, 0.5h) was 0/8, the “TOX, number of animals exhibiting toxic effects / total number of animals tested” value (mice; 100 mg/kg, 4.0h) was 0/4 and the “TOX, number of animals exhibiting toxic effects / total number of animals tested” value (mice; 300 mg/kg, 0.5h) was 1/4. For the same compound, the “TOX, number of animals exhibiting toxic effects / total number of animals tested” value (mice; 300 mg/kg, 4.0h) was 0/2, the “ScMET, number of animals protected / total number of animals tested” value (pentylenetetrazol; 30 mg/kg, 0.5h) was 0/1 and the “ScMET, number of animals protected / total number of animals tested” value (pentylenetetrazol; 30 mg/kg, 4.0h) was 0/1. For the same compound, the “ScMET, number of animals protected / total number of animals tested” value (pentylenetetrazol; 100 mg/kg, 0.5h) was 0/1, the “ScMET, number of animals protected / total number of animals tested” value (pentylenetetrazol; 100 mg/kg, 4.0h) was 0/1 and the “ScMET, number of animals protected / total number of animals tested” value (pentylenetetrazol; 300 mg/kg, 0.5h) was 0/1. For the same compound, the “ScMET, number of animals protected / total number of animals tested” value (pentylenetetrazol; 300 mg/kg, 4.0h) was 0/1, the “TOX, number of animals exhibiting toxic effects / total number of animals tested” value (rats; 0.25h) was 0/4 and the “TOX, number of animals exhibiting toxic effects / total number of animals tested” value (rats; 0.5h) was 0/4. For the same compound, the “TOX, number of animals exhibiting toxic effects / total number of animals tested” value (rats; 1.0h) was 0/4, the “TOX, number of animals exhibiting toxic effects / total number of animals tested” value (rats; 2.0h) was 0/4 and the “TOX, number of animals exhibiting toxic effects / total number of animals tested” value (rats; 4.0h) was 0/4.

For `O=C1NC(O)C(c2ccccc2)CO1` (stereo not shown) [Cyclic MCF], the “MES, number of animals protected / total number of animals tested” value ([1]; 0.25h) was 0/4, the “MES, number of animals protected / total number of animals tested” value ([1]; 0.5h) was 0/4 and the “MES, number of animals protected / total number of animals tested” value ([1]; 1.0h) was 1/4. The “MES, number of animals protected / total number of animals tested” value ([1]; 2.0h) was 2/4, the “MES, number of animals protected / total number of animals tested” value ([1]; 4.0h) was 3/4 and the “anti-seizure activity (in words)” value [1] was “potent activity”. The “MES, number of animals protected / total number of animals tested” value ([2]; 30 mg/kg, 0.5h) was 0/1, the “MES, number of animals protected / total number of animals tested” value ([2]; 30 mg/kg, 2.0h) was 0/1 and the “MES, number of animals protected / total number of animals tested” value ([2]; 100 mg/kg, 0.5h) was 0/3. The “MES, number of animals protected / total number of animals tested” value ([2]; 100 mg/kg, 2.0h) was 2/3, the “MES, number of animals protected / total number of animals tested” value ([2]; 300 mg/kg, 0.5h) was 1/1 and the “MES, number of animals protected / total number of animals tested” value ([2]; 300 mg/kg, 2.0h) was 1/1. For the same compound, the “TOX, number of animals exhibiting toxic effects / total number of animals tested” value (mice; 30 mg/kg, 0.5h) was 0/4, the “TOX, number of animals exhibiting toxic effects / total number of animals tested” value (mice; 30 mg/kg, 2.0h) was 0/2 and the “TOX, number of animals exhibiting toxic effects / total number of animals tested” value (mice; 100 mg/kg, 0.5h) was 0/8. The “TOX, number of animals exhibiting toxic effects / total number of animals tested” value (mice; 100 mg/kg, 2.0h) was 0/4, the “TOX, number of animals exhibiting toxic effects / total number of animals tested” value (mice; 300 mg/kg, 0.5h) was 0/4 and the “TOX, number of animals exhibiting toxic effects / total number of animals tested” value (mice; 300 mg/kg, 2.0h) was 0/2. The “ScMET, number of animals protected / total number of animals tested” value (pentylenetetrazol; 30 mg/kg, 0.5h) was 0/1, the “ScMET, number of animals protected / total number of animals tested” value (pentylenetetrazol; 30 mg/kg, 2.0h) was 0/1 and the “ScMET, number of animals protected / total number of animals tested” value (pentylenetetrazol; 100 mg/kg, 0.5h) was 2/5. For the same compound, the “ScMET, number of animals protected / total number of animals tested” value (pentylenetetrazol; 100 mg/kg, 2.0h) was 0/1, the “ScMET, number of animals protected / total number of animals tested” value (pentylenetetrazol; 300 mg/kg, 0.5h) was 2/5 and the “ScMET, number of animals protected / total number of animals tested” value (pentylenetetrazol; 300 mg/kg, 2.0h) was 0/1. For the same compound, the “TOX, number of animals exhibiting toxic effects / total number of animals tested” value (rats; 0.25h) was 0/4, the “TOX, number of animals exhibiting toxic effects / total number of animals tested” value (rats; 0.5h) was 0/4 and the “TOX, number of animals exhibiting toxic effects / total number of animals tested” value (rats; 1.0h) was 0/4. For the same compound, the “TOX, number of animals exhibiting toxic effects / total number of animals tested” value (rats; 2.0h) was 0/4 and the “TOX, number of animals exhibiting toxic effects / total number of animals tested” value (rats; 4.0h) was 0/4.

`NC(=O)OCC(F)(CO)c1ccccc1` (stereo not shown) [fluoro monocarbamate felbamate, 2-Fluoro-2-phenyl-1,3-propanediol monocarbamate] was tested, and the “MES, number of animals protected / total number of animals tested” value ([1]; 0.25h) was 0/4, the “MES, number of animals protected / total number of animals tested” value ([1]; 0.5h) was 3/4 and the “MES, number of animals protected / total number of animals tested” value ([1]; 1.0h) was 0/4. The “MES, number of animals protected / total number of animals tested” value ([1]; 2.0h) was 1/4, the “MES, number of animals protected / total number of animals tested” value ([1]; 4.0h) was 0/4 and the “MES, number of animals protected / total number of animals tested” value ([2]; 30 mg/kg, 0.5h) was 0/1. The “MES, number of animals protected / total number of animals tested” value ([2]; 30 mg/kg, 4.0h) was 0/1, the “MES, number of animals protected / total number of animals tested” value ([2]; 100 mg/kg, 0.5h) was 2/3 and the “MES, number of animals protected / total number of animals tested” value ([2]; 100 mg/kg, 4.0h) was 0/3. The “MES, number of animals protected / total number of animals tested” value ([2]; 300 mg/kg, 0.5h) was 1/1, the “MES, number of animals protected / total number of animals tested” value ([2]; 300 mg/kg, 4.0h) was 0/1 and the “MES protection (in words)” value ([2]; mice, 100 mg/kg) was “moderate MES protection”. For the same compound, the “TOX, number of animals exhibiting toxic effects / total number of animals tested” value (mice; 30 mg/kg, 0.5h) was 0/4, the “TOX, number of animals exhibiting toxic effects / total number of animals tested” value (mice; 30 mg/kg, 4.0h) was 0/2 and the “TOX, number of animals exhibiting toxic effects / total number of animals tested” value (mice; 100 mg/kg, 0.5h) was 3/8. The “TOX, number of animals exhibiting toxic effects / total number of animals tested” value (mice; 100 mg/kg, 4.0h) was 0/4, the “TOX, number of animals exhibiting toxic effects / total number of animals tested” value (mice; 300 mg/kg, 0.5h) was 2/4 and the “TOX, number of animals exhibiting toxic effects / total number of animals tested” value (mice; 300 mg/kg, 4.0h) was 0/2. For the same compound, the “ScMET, number of animals protected / total number of animals tested” value (pentylenetetrazol; 30 mg/kg, 0.5h) was 0/1, the “ScMET, number of animals protected / total number of animals tested” value (pentylenetetrazol; 30 mg/kg, 4.0h) was 0/1 and the “ScMET, number of animals protected / total number of animals tested” value (pentylenetetrazol; 100 mg/kg, 0.5h) was 0/1. The “ScMET, number of animals protected / total number of animals tested” value (pentylenetetrazol; 100 mg/kg, 4.0h) was 0/1, the “ScMET, number of animals protected / total number of animals tested” value (pentylenetetrazol; 300 mg/kg, 0.5h) was 1/1 and the “ScMET, number of animals protected / total number of animals tested” value (pentylenetetrazol; 300 mg/kg, 4.0h) was 0/1. For the same compound, the “TOX, number of animals exhibiting toxic effects / total number of animals tested” value (rats; 0.25h) was 0/4, the “TOX, number of animals exhibiting toxic effects / total number of animals tested” value (rats; 0.5h) was 0/4 and the “TOX, number of animals exhibiting toxic effects / total number of animals tested” value (rats; 1.0h) was 0/4. The “TOX, number of animals exhibiting toxic effects / total number of animals tested” value (rats; 2.0h) was 0/4 and the “TOX, number of animals exhibiting toxic effects / total number of animals tested” value (rats; 4.0h) was 0/4.

Reference: EP1282414B1, “FELBAMATE DERIVED COMPOUNDS FOR TREATING NEUROPATHIC PAIN” (University of Virginia Patent Foundation, priority 2000, dated 2001)
